Test results: US7781419B2, “Use of bisphosphonates for otosclerosis” (priority 2003, dated 2010)
Where two headings read alike, the source gives them in different places.

Key:
[1] = system: otosclerosis patients with hearing loss; experiment: Example 2: stepped-up risedronate follow-up, hearing loss patients; format: in vivo, human; details: 30 mg twice weekly, after 3 to 31 months, 125 patients
From the text: (§1) The second investigation is cumulative to the first investigation, i.e., some patients reported in Example 1 are included in Example 2.
Hearing Loss after a Period of 3 to 31 Months

[2] = system: otosclerosis patients with dizziness; experiment: Example 1: stepped-up risedronate, dizziness patients; format: in vivo, human; details: 30 mg twice weekly, after 3 to 25 months, 76 patients
Protocol: (§2) Patients were administered the bisphosphonate to see if dizziness could disappear or if associated symptoms of hearing loss or ear noise could be improved.
(§3) In the first study, the following populations having the symptom stated were treated with a dosing schedule of 30 mg risedronate twice weekly (double the recommended dose for treating osteoporosis).

[3] = system: otosclerosis patients with Meniere's syndrome; experiment: Example 1: stepped-up risedronate, Meniere's syndrome patients; format: in vivo, human; details: 30 mg twice weekly, after 2 to 25 months, 36 patients
Protocol: as §3

[4] = system: otosclerosis patients with tinnitus; experiment: Example 2: stepped-up risedronate follow-up, tinnitus patients; format: in vivo, human; details: 30 mg twice weekly, after 2 to 31 months, 84 patients
From the text: as §1
Tinnitus or Ear Noise after 2 to 31 Months

[5] = system: otosclerosis patients with hearing loss; experiment: Example 1: stepped-up risedronate, hearing loss patients; format: in vivo, human; details: 30 mg twice weekly, after 3 to 24 months, 46 patients
Protocol: as §3
Hearing Loss after a Period of 3 to 24 Months

[6] = system: otosclerosis patients with tinnitus; experiment: Example 1: stepped-up risedronate, tinnitus patients; format: in vivo, human; details: 30 mg twice weekly, after 3 to 19 months, 29 patients
Protocol: This symptom can be a mild distraction, to an annoyance, to difficulty concentrating, to a total distraction. […] There are no current recognized treatments for tinnitus directed at a cause.
as §3
Tinnitus or Ear Noise after a Period of 3 to 19 Months

[7] = system: otosclerosis patients with dizziness; experiment: Example 2: stepped-up risedronate follow-up, dizziness patients; format: in vivo, human; details: 30 mg twice weekly, after 2 to 32 months, 155 patients
From the text: as §1
Dizziness after a Period of 2 to 32 Months

[8] = system: otosclerosis patients with Meniere's syndrome; experiment: Example 2: stepped-up risedronate follow-up, Meniere's syndrome patients; format: in vivo, human; details: 30 mg twice weekly, after 2 to 33 months, 42 patients
From the text: as §1
Meniere's Syndrome after a Period of 2 to 33 Months

[9] = system: otosclerosis patients with hearing loss; details: 4 mg per injection, after 2 to 10 months, 5 patients (two also on etidronate)
Protocol: To illustrate the advantages of the invention, patients with the following symptoms were treated.
In a fourth study, the following populations having the symptom stated were administered a zolendronic acid injection in 4 mg per injection no more frequently than every three months. The frequency of administration was dependent upon the patient response and the impending indication. Some patients were also administered etidronate. All patients received calcium plus vitamin D and/or calcium plus fluoride throughout the treatment.
Hearing Loss after 2 to 10 Months

[10] = system: otosclerosis patients with dizziness; experiment: Example 4: intravenous zolendronic acid, dizziness patients; format: in vivo, human; details: 4 mg per injection, after 4 to 12 months, 3 patients
Protocol: as §2
In a fourth study, the following populations having the symptom stated were administered a zolendronic acid injection in 4 mg per injection no more frequently than every three months. […] Some patients were also administered etidronate.
Dizziness after 4 to 12 Months

O=P(O)(O)C(O)(Cc1cccnc1)P(=O)(O)O [risedronate, pyridiniyl bisphosphonate]
patients with hearing improved [1]: 51%
patients with hearing unchanged [1]: 47%
patients with hearing worse [1]: 2%
patients with disappearance of dizziness [2]: 38%
patients with dizziness worse [2]: 3%
patients with no change in dizziness [2]: 8%
patients with reduced dizziness, no problem in daily living [2]: 38%
relief of dizziness [2]: greater than 90%
clogging or fullness in the ear worse [3]: no patient
dizziness the same or worse [3]: no instances
ear noise worse [3]: no patient
patients in whom clogging or fullness in the ear was not present [3]: 42%
patients whose clogging or fullness in the ear disappeared [3]: 17%
patients whose dizziness disappeared [3]: 50%
patients whose ear noise cleared up [3]: 8%
patients with clogging or fullness in the ear better [3]: 22%
patients with clogging or fullness in the ear the same [3]: 19%
patients with ear noise better [3]: 72%
patients with ear noise unchanged [3]: 19%
patients with hearing better [3]: 83%
patients with hearing the same [3]: 8%
patients with hearing worse than with prior bisphosphonate treatment [3]: 8%
patients with improvement, regular lifestyle free of disabling dizziness [3]: 16%
improvement in tinnitus or ear noise [4]: 76%
patients with disappearance of tinnitus [4]: 5%
patients with reduction of tinnitus to a point where it was no longer a problem [4]: 71%
patients with tinnitus the same [4]: 21%
patients with tinnitus worse [4]: 2%
patients with hearing improved [5]: 70%
patients with hearing unchanged [5]: 24%
patients with hearing worse [5]: 6%
improvement in tinnitus or ear noise [6]: 68%
patients with disappearance of tinnitus [6]: 7%
patients with reduction of tinnitus to a point where it was no longer a problem [6]: 62%
patients with tinnitus the same [6]: 24%
patients with tinnitus worse [6]: 7%
patients whose dizziness disappeared [7]: 45%
patients with dizziness worse [7]: 2%
patients with no change in dizziness [7]: 5%
patients with reduced dizziness, no problem in daily living [7]: 39%
relief of dizziness [7]: 84%
clogging or fullness in the ear worse [8]: no patients
dizziness the same or worse [8]: no instances
patients whose clogging or fullness in the ear disappeared [8]: 26%
patients whose dizziness disappeared [8]: 57%
patients with clogging or fullness in the ear better [8]: 19%
patients with clogging or fullness in the ear the same [8]: 7%
patients with ear noise better [8]: 60%
patients with ear noise gone [8]: 10%
patients with ear noise the same [8]: 19%
patients with ear noise worse [8]: 2%
patients with hearing better [8]: 69%
patients with hearing the same [8]: 14%
patients with hearing worse than with prior bisphosphonate treatment [8]: 12%
patients with improvement, regular lifestyle free of disabling dizziness [8]: 17%

O=P(O)(O)C(O)(Cn1ccnc1)P(=O)(O)O [zolendronic acid]
patients with hearing unchanged [9]: 80%
patients with hearing worse [9]: 20%
relief of dizziness [10]: ~100%
